One block for each molecule: values may come before it. The source made the active and inactive calls.
Key:
[1] = cytotoxicity toward MDA-MB-231 breast cancer cells – cell-based, CellTiter-Glo luminescence, cherry-pick, cytotoxicity control for RAD54 inhibitor project, dose response (AID 651692); assay type: functional
[2] = target: T1, DNA repair protein RAD52 homolog (Homo sapiens, UniProt P43351); assay type: functional, biochemical
T1 sequence (P43351 whole entry): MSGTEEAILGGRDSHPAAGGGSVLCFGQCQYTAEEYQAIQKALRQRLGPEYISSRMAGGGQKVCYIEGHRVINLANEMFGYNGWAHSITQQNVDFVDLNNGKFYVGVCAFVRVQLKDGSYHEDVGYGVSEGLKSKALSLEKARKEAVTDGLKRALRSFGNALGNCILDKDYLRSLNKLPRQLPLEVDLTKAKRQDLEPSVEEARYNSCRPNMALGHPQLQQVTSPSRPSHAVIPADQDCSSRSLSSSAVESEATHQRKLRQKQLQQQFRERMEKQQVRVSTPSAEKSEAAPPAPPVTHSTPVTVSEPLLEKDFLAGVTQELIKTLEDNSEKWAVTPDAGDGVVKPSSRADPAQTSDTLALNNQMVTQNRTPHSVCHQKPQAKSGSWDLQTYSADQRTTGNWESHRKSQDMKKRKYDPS

[3] = target: T2, DNA repair and recombination protein RAD54-like (Homo sapiens, UniProt Q92698); experiment: RAD54 Holliday junction migration blockers – biochemical, fluorescence, cherry-picked samples, dose series, confirmation (AID 651657); assay type: functional
T2 sequence (Q92698 whole entry): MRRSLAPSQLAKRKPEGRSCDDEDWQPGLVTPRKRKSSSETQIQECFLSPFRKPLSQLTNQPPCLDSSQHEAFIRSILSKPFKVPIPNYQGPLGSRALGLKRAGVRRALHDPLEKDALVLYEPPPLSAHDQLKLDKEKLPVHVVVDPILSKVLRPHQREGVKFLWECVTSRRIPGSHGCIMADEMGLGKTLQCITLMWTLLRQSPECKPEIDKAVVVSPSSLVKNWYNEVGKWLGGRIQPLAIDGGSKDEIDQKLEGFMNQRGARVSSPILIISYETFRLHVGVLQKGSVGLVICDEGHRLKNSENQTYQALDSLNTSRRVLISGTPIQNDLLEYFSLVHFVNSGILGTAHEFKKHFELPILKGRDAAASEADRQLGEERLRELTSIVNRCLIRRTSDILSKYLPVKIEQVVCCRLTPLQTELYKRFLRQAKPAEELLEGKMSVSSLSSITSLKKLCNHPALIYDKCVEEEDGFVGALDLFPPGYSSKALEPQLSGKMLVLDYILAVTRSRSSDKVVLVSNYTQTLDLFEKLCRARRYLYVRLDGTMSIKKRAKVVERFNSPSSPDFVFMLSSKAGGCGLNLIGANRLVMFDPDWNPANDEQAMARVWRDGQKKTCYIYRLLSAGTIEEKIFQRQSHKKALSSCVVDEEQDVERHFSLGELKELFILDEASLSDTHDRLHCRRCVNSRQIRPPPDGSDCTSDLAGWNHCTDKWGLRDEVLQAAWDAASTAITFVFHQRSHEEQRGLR

[4] = target: T3, Sentrin-specific protease 1 (Homo sapiens, UniProt Q9P0U3); experiment: Dose response confirmation of small molecule inhibitors of the catalytic domain of the SUMO protease, SENP1 in a FRET assay.; assay type: functional; details: read-out: IC50_Mean
T3 sequence (Q9P0U3 whole entry): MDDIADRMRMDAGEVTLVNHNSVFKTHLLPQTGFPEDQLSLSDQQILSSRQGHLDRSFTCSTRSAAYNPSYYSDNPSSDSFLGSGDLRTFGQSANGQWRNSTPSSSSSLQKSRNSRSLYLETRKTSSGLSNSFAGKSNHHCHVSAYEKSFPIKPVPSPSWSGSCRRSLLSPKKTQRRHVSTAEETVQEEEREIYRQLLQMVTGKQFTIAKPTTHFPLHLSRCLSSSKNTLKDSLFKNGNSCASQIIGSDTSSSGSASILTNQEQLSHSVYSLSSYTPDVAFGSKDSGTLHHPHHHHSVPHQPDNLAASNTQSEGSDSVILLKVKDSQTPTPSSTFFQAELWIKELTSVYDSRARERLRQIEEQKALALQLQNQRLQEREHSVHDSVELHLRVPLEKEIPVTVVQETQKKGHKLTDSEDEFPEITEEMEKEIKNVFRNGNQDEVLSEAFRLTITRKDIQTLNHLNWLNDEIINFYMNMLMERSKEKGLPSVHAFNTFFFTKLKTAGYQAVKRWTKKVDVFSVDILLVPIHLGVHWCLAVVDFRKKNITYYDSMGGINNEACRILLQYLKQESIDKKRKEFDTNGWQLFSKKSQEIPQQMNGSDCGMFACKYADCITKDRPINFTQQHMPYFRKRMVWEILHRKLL

[5] = target: T3, Sentrin-specific protease 1; experiment: SENP1 catalytic domain blockers, concentration series – biochemical, kinetic FRET, dose response (AID 651697); assay type: functional; details: read-out: IC50_Mean
[6] = target: T4, ATP-dependent translocase ABCB1 (Homo sapiens, UniProt P08183); experiment: P-gp JC-1 efflux blockade concentration-response – Jurkat-DNR cells, flow cytometry, set 2, dose response (AID 504569); assay type: functional; details: read-out: EC50_MICROM_;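 further: potency of pump inhibitors that raise cellular JC-1 green fluorescence up to the nicardipine level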
T4 sequence (P08183 whole entry): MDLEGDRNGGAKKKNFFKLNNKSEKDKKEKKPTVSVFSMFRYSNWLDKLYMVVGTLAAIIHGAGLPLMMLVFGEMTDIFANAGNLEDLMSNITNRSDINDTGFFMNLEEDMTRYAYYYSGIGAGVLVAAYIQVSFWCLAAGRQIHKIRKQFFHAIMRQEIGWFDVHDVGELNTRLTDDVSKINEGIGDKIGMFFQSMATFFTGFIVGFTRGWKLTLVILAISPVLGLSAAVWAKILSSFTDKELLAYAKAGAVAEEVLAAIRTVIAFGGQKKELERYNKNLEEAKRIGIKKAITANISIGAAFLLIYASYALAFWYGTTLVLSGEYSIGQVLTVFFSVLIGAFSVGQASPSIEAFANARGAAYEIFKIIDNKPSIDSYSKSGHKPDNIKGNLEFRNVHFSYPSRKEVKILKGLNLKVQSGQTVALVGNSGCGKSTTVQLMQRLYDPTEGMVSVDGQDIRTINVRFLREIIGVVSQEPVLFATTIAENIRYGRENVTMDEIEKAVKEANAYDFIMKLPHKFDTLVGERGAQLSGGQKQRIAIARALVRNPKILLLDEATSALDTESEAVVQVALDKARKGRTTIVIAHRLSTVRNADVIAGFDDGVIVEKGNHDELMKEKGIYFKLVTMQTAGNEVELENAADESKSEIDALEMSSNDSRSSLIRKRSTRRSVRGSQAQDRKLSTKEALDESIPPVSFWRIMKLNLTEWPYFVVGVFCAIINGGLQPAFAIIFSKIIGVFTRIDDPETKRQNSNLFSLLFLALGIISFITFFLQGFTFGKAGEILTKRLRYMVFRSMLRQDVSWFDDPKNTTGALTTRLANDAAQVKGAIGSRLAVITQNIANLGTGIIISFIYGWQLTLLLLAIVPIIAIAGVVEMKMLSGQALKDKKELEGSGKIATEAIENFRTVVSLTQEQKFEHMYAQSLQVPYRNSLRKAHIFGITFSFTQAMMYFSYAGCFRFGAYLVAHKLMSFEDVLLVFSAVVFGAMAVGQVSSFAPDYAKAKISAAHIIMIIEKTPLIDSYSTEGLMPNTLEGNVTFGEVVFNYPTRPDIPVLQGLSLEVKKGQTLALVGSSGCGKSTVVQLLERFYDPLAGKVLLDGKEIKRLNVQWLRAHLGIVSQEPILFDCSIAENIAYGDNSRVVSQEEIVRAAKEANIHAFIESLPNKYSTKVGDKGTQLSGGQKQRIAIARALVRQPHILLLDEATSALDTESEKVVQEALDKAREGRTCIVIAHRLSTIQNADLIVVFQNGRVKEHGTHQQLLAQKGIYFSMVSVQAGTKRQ

[7] = target: T4, ATP-dependent translocase ABCB1; experiment: inhibition of BCRP-mediated JC-1 efflux – Ig-MXP3 cells, flow cytometry, set 2, dose response (AID 504566); assay type: functional; details: read-out: EC50_MICROM_;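 further: flow cytometry median green fluorescence of retained JC-1 dye; potency of efflux pump inhibition measured as rising substrate retention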
Vero = experiment: viability loss in Vero cells – cell-based, plate reader, cherry-pick samples, cytotoxicity control, dose response (AID 687020); assay type: functional; details: Chlorocebus sabaeus
[8] = target: T5, Low molecular weight phosphotyrosine protein phosphatase (Homo sapiens, UniProt P24666); assay type: functional; details: read-out: IC50_Mean
T5 sequence (P24666 whole entry): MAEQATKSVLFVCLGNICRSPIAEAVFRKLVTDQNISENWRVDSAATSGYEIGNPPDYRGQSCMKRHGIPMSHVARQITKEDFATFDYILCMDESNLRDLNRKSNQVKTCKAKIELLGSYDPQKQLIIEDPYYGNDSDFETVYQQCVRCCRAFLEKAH

[9] = target: T5, Low molecular weight phosphotyrosine protein phosphatase; assay type: functional; details: read-out: IC50_Mean; remark: listed apart in the source

IC50 [4]: 13.3 µM (active)
IC50 [5]: 29.9 µM (inactive)
SMILES: CCc1nnc(NC(=O)CCN2C(=O)/C(=C/c3cc(OC)c(OC)c(OC)c3)SC2=S)s1

IC50 [8]: 16.3 µM (active)
IC50 [9]: 13.4 µM (active)
SMILES: Oc1c2c(nc3cc(-c4ccc(Cl)cc4)nn13)CCS2

Second part, the molecule before the results:

SMILES: COc1ccc(OC)c2sc(N(CCN(C)C)C(=O)c3ccc4ccccc4c3)nc12
AC50 [1]: 32.7 µM (active)
AC50 [2]: 10.7 µM (active)
AC50 [3]: 58.4 µM (active)

SMILES: CC(C)(C)c1cc2nc(C(F)(F)F)cc(N3CCN(C(=O)c4cccs4)CC3)n2n1
EC50 [6]: 6.06 µM (active)
EC50 [7]: 1.59 µM (active)

SMILES: CCNS(=O)(=O)c1ccc(Br)c(C(=O)OC(C)C(=O)NCC2CCCCC2)c1 (stereo not given)
AC50 (Vero): 31.7 µM (active)

— ChEMBL document CHEMBL1201862, “PubChem BioAssay data set” (2004)
